# Results reported in US20260021147A1, “COMPOSITIONS AND METHODS FOR TREATING INFLAMMATORY DISEASE” (The Regents of the University of Michigan, priority 2022, published 2026).
# Entries after “also recorded” stand apart in the source; their conditions may differ.
# Tests used:
# [1] = system: allogeneic mice (B6D2F1 recipients of B6 donor cells); test: Murine GvHD model (allo-HSCT): survival and GvHD histology; format: in vivo
# Method: In a murine model with a mucin-deficient mutate strain of BT, piperacillin/tazobactam was given at a concentration of 3.2 g/L in combination with vancomycin and metronidazole dosed 1.5 mg daily by oral gavage from days −16 to −12 relative to transplant.
# D-(+)-xylose (X3877, Sigma-Aldrich) or D-(+)-glucose (G8270, Sigma-Aldrich) was dissolved in phosphate buffer pH 8.0 with meropenem or in water without meropenem and given at a concentration of 0.5% from days 13 to 28 after allo-HSCT.
# Mice were transplanted as previously described (Hayase et al., 2017).
# (§1) Pathology scores were quantified by a blinded pathologist. […] Sections were imaged using an Aperio AT2.
# [2] = system: Bacteroides thetaiotaomicron (MDA-JAX BT001); test: MIC of meropenem with MIC test strips; format: cell-based; settings: mouse-derived BT
# Method: Mouse-derived BT (MDA-JAX BT001), Enterococcus faecalis (MDA-JAX EF001) and Clostridium disporicum (MDA-JAX CD001), Clostridium saudiense (MDA-JAX CS001), and Lachnospiraceae unclassified (MDA-JAX LS001) were isolated and cultured from mouse stool samples suspended in 1 ml of chilled 20% anaerobic glycerol in a Whitley anaerobic chamber (10% H2, 5% CO2 and 85% N2). Human-derived BT (ATCC 29148) was purchased from ATCC. Bacterial number was quantified using a Nexcelom Cellometer cell counter with SYTO™ BC dye and propidium iodide. For measuring MICs against meropenem, bacteria were cultured on BYE plates including 5% sterilized rumen fluid (Fisher Scientific) with MIC test strips (Liofilchem™ MTS™ Meropenem [MRP] 0.016-256 μg/mL, Fisher Scientific). Bacterial growth experiments were performed in a bacterial liquid media, BYEM10, composed of a hybrid of BHI and M10 supplemented with yeast extract (Table 4). Bacteria were cultured up to 48 hours at a starting concentration of 1×10^6 bacteria/ml in BYEM10 broth (pH 7.2) with and without 5 mg/ml of porcine gastric mucin (M1778, Sigma-Aldrich) with or without 0.5 mg/ml of D-(+)-xylose (X3877), D-(+)-mannose (M8574, Sigma-Aldrich) or D-(+)-glucose (G8270). Optical densities (OD600 nm) of bacterial cultures were measured with a BioTek EPOCH 2 plate reader.
# [3] = system: colonic mucus layer; test: Colonic mucus thickness by PAS staining; format: in vivo, mice; settings: allogeneic mice, day 18
# Text: as §1
# [4] = Pharmacokinetics of meropenem in cecal contents by LC-MS; format: in vivo, C57BL/6 mice; settings: 10 mg subcutaneous injection; 4, 8, 24, 48 and 96 hours
# Method: C57BL/6 mice were treated with 10 mg of meropenem by subcutaneously injection. Cecal contents were collected prior to, 4, 8, 24, 48, and 96 hours after meropenem injection. To determine the relative abundance of meropenem in mouse cecum samples, extracts were prepared and analyzed with a Thermo Scientific TSQ Quantiva triple quadruple mass spectrometer coupled with a Dionex UltiMate 3000 HPLC system. Approximately 600 mgs of mouse cecal contents were homogenized with a Precellys Tissue Homogenizer. Metabolites were extracted using 100% acetonitrile. The tissue lysates were vortexed, centrifuged at 17,000 g for 5 min 5 at 4° C., and organic layers were transferred to clean tubes, followed by evaporation to dryness under nitrogen. Dried extracts were reconstituted in 50/50 (v/v) water/Acetonitrile, and 5 μL was injected for analysis by LC-MS. The mobile phase A is 100% water and mobile phase B is 0.1% Formic Acid in acetonitrile. Separation of meropenem was achieved on an Agilent SB-C18, 1.8 μm, 100×3 mm column. The flow rate was 250 μL/min at 35° C., and the gradient elution program was: 0-1 min, 5% MPB; 1-5 min, 5-50% MPB; 5-6 min, 50-95% MPB; 6-10 min, 95% MPB; 10-10.1 min, 95-5% MPB. The total run time was 15 min. The mass spectrometer was operated in the MRM positive ion electrospray mode with the transition m/z 384.1->68.0. […]
smiles,measurement,setting,value
C[C@@H](O)[C@H]1C(=O)N2C(C(=O)O)=C(S[C@@H]3CN[C@H](C(=O)N(C)C)C3)[C@H](C)[C@H]12 [meropenem],GvHD histological scores in the colon,"[1]; meropenem days 3 to 15, day 18, vs control allogeneic mice",significantly higher GvHD histological scores in the colon
same,overall survival,"[1]; meropenem in drinking water days 3 to 15, vs control allogeneic mice",significantly worsened survival
same,MIC,[2],4 µg/mL
same,colonic mucus layer,[3],significantly thinned colonic mucus layer; also recorded: thinning of the colonic mucus layer
same,meropenem concentrations in the cecal lumen,[4],"increase in meropenem concentrations in the cecum at 4 hours after injection, which rapidly declined afterwards"
